Where two headings read alike, the source gives them in different places.
Columns and labels:
[1] = target: T1, adiponectin receptor 1 (AdipoR1) (Homo sapiens, UniProt Q96A54); conditions: Dib et al. 2017; cited from earlier work
T1 sequence (Q96A54 1-375): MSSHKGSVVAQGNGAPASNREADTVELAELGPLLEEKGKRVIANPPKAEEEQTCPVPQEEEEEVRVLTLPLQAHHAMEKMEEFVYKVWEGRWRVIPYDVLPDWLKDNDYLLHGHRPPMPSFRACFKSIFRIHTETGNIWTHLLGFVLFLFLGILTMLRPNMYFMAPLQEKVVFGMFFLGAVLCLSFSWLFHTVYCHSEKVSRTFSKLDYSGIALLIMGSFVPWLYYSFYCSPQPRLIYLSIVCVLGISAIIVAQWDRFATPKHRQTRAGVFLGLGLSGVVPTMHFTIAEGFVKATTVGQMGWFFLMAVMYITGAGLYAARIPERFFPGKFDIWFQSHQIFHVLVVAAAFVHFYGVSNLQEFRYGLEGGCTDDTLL

[2] = target: T2, adiponectin receptor 2 (AdipoR2) (Homo sapiens, UniProt Q86V24); conditions: Dib et al. 2017; cited from earlier work
T2 sequence (Q86V24 1-386): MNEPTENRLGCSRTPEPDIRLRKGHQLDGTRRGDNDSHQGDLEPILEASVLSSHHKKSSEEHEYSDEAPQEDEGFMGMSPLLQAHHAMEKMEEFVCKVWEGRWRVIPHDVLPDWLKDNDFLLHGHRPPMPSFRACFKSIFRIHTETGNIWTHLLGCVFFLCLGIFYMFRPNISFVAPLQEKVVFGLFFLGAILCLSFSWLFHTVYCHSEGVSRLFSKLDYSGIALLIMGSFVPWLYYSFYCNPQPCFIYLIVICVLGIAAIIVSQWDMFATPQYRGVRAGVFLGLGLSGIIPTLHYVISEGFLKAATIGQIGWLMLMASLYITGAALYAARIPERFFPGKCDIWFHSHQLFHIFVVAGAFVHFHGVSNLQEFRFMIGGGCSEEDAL

[3] = test system: Lhcgr mRNA; assay: Lhcgr mRNA expression in ovaries of db/db mice; format: in vivo; conditions: 50 mg/kg single po dose, 0.5-24 h
Description: (§1) FIGS. 6A and 6B Lhcgr mRNA expression (6A) and Cyp17a1 mRNA expression (6B) in ovaries of untreated db/db mice (black column) or db/db mice treated with 50 mg/kg Adiporon (grey column) is shown (n=3 biological replicates; error bars show SD). Expression of Cyp17a1 and Lhrgr mRNA in ovaries of adult female db/db mice were analyzed for untreated mice or mice treated with 50 mg/kg Adiporon as a single po dose given at t=0 h. At 0.5 h, 1 h, 2 h, 4 h, 24 h, mice were killed, and ovaries were taken, mRNA isolated (Qiagen, RNeasy Mini kit #74106) and mRNA quantified by Q-PCR (ThermoFisher Scientific Assay on demand #Mm00484040_ml for Cyp17a1 and Mm00442931_ml for Lhcgr).

[4] = test system: steroid synthesis in db/db mice; assay: Plasma AUC of testosterone and progesterone in female db/db mice; format: in vivo; conditions: single po dose 50 and 100 mg/kg, significant at 100 mg/kg (p<0.1)
Description: Female db/db mice, which were untreated, or treated with Adiporon at 50 mg/kg and 100 mg/kg with a single po dose, were analysed. Blood was taken at 0.5, 1, 2, 4, and 24 hours, and plasma concentrations of progesterone (ibl/Tecan Order No RE52231, Hamburg) and testosterone (Demeditec Order No DEV9911, Kiel) were determined by commercial ELISAs. Area under the curve (AUC) of total steroids was determined by an algorithm according to Gagnon et al. (1998) by GraphPadPrism software. […] The effects are significant at the higher dosage of AdipoRon of 100 mg/kg after a single application (* t-test AUC versus 100 mg/kg Adiporon (n=5 time points), double sided; p<0.1).

[5] = test system: DHEA-induced PCOS Model in rats; assay: DHEA-induced PCOS Model in rats; format: in vivo, rat; conditions: 60 mg/kg/d DHEA sc 20 days, 50 mg/kg/d Adiporon last 10 days
Description: FIG. 8: Plasma testosterone concentration [nM] […] An autostimulation of adiponectin by stimulation of AdipoR1 and/or AdipoR2 has been described before and validates the activity of AdipoRon on the AdipoR1 and/or AdipoR2 receptors (Jardé et al. 2009).

[6] = test system: Cyp11b1 mRNA in Y-1 cells; assay: Cyp11b1 mRNA induction by ACTH in adrenal cell line Y-1; format: cell-based, mouse; conditions: for EC50: Mus musculus
Description: (§2) Y-1 cells (epithelial cells of mouse adrenal gland origin) were cultivated in F12-K medium with 10% FBS and 15% donor horse serum. Cells were treated with 10 nM ACTH, and 30 min later the Adipor1/2 agonist AdipoRon was added in a final concentration of 0.1 μM, 1 μM, 10 μM for two and a half hours. Cells were harvested, mRNA isolated and […] and Star mRNA quantified relative to β-actin (Actb) mRNA. Hatched column: vehicle control, grey column: 10 nM ACTH, white columns: 10 nM ACTH+0.1 μM, 1 μM, or 10 μM AdipoRon.
(§3) ACTH is a hormone of the Hypothalamic-pituitary-adrenal axis and stimulates the expression of Steroidogenic acute regulatory protein (StAR) and […] ([…]), which then can lead to cortisol production and, as a consequence, insulin resistance. Insulin insensitivity is observed in women diagnosed with PCOS. […] EC50 for AdipoRon for this effect is around 10 μM for StAR, and around 0.1 to 1 μM for Cyp11b1, but seems to be saturated at higher concentrations.

[7] = test system: StAR mRNA in Y-1 cells; assay: StAR mRNA induction by ACTH in adrenal cell line Y-1; format: cell-based, mouse
Description: as §2, §3

[8] = test system: wt and Adipor1−/−Adipor2−/− mice; conditions: FIG. 9B, cited from earlier work
[9] = test system: LH; assay: LH concentration in plasma of female rats at proestrous; format: in vivo, rat; conditions: female Han-Wistar rats, 50 or 100 mg/kg twice a day for one estrous cycle, d3 proestrous 7 pm
Description: For this, the cycle phase of untreated naive female Han-Wistar rats was staged by vaginal smears. Rat plasma was taken at different days and time points of the cycle (d3=proestrous, d4=estrous), and LH in plasma determined by a rat pituitary magnetic bead panel (Milliplex, Cat No RPTMAG-86K). LH peak could be detected at d3 at 7 pm in the afternoon as described previously (Smith et al. 1975). Thus, this time point is well suited for measurement of the effect of AdipoR1 and/or AdipoR2 receptors activation by AdipoRon. […] For this, the cycle phase of untreated naive female Han-Wistar rats was staged by vaginal smears. Rats were treated for one estrous cycle, beginning with metestrous, with 50 mg/kg or 100 mg/kg of Adiporon in a suitable vehicle twice a day. Rat plasma was taken at d3=proestrous at 7 pm, and LH was determined by a rat pituitary magnetic bead panel (Milliplex Cat No RPTMAG-86K).

[10] = test system: Cyp17a1 mRNA; assay: Cyp17a1 mRNA expression in ovaries of db/db mice; format: in vivo; conditions: 50 mg/kg single po dose, 0.5-24 h
Description: as §1

[11] = Single dose exposure experiment in db/db mice (unbound plasma concentration, LC/MS); format: in vivo; conditions: 100 mg/kg p.o. single dose, adult female db/db mice, 0.5 h, 1 h, 4 h
Description: At t=0, a dose of 50 mg/kg (circle) or 100 mg/kg (squares) was given p.o. to adult female db/db mice. At each time point (0.5 h, 1 h, and 4 h) three mice were killed and the plasma concentration of unbound AdipoRon was determined by LC/MS.

[12] = test system: tgLH mice; assay: Oral glucose tolerance test in transgenic mice overexpressing LH (tgLH); format: in vivo; conditions: 100 mg/kg/d for four weeks, 2 g/kg glucose after 6 h fasting
Description: 9A: Plasma insulin concentration [mg/L] in wt-mice (light grey column) and untreated tgLH mice (dark grey column) or tgLH mice treated with 100 mg/kg Adiporon (black column) is shown. 9B: Insulin concentrations [ng/mL] during OGTT in wt (left diagram) and Adipor1−/−Adipor2−/−tg mice (right diagram) treated with vehicle (open circle) or treated with 100 mg/kg (circle) are shown.
Increased LH secretion is causal for the development of PCOS in women, and tgLH overexpression in mice recapitulates the human PCOS phenotype in women. For this experiment, an oral glucose tolerance test was performed in control, transgenic LH overexpressing mice, and tgLH mice treated with Adiporon at 100 mg/kg/d for four weeks. To determine insulin sensitivity, plasma was taken at 15 min after giving an oral glucose gavage of 2 g/kg after fasting of the mice for 6 h in the last two days of the experiment (Andrikopoulos et al. 2008).

| EC50 ([6]; Y-1 cell, as restated for FIG. 5 (see FIG. 2), read-out: EC50 value for effects in Y-1 cell) [nM] | EC50 ([6]; Y-1 cells, 10 nM ACTH, AdipoRon two and a half hours, FIG. 2B, seems saturated at higher concentrations, read-out: EC50 for reduction of the induction of Cyp11b1 by ACTH) [nM] | EC50 ([7]; Mus musculus, 10 nM ACTH, AdipoRon two and a half hours, FIG. 2A, read-out: EC50 for reduction of the induction of StAR by ACTH) [µM] | plasma concentration of unbound AdipoRon versus EC50 [11] | SMILES | binding to AdipoR1 [1] | binding to AdipoR2 [2] | Lhcgr (LH receptor) mRNA expression in ovaries [3] | plasma AUC of progesterone [4] | plasma AUC of testosterone [4] | plasma adiponectin concentration [5] | Plasma testosterone concentration ([5]; p<0.05) | effect on induction of Cyp11b1 mRNA by ACTH ([6]; Y-1 cells, 10 nM ACTH + 0.1, 1 or 10 μM) | effect on induction of StAR mRNA by ACTH ([7]; 10 nM ACTH + 0.1, 1 or 10 μM) | Insulin concentrations during OGTT, Adipor1−/−Adipor2−/− mice ([8]; mice double negative for Adiponectin Receptors 1 and 2, 100 mg/kg) | Insulin concentrations during OGTT, wild-type mice ([8]; wt mice, 100 mg/kg) | LH concentration in plasma [9] | Cyp17a1 mRNA expression in ovaries [10] | insulin sensitivity (plasma insulin 15 min after oral glucose) [12] |
| --- | --- | --- | --- | --- | --- | --- | --- | --- | --- | --- | --- | --- | --- | --- | --- | --- | --- | --- |
| – | – | – | – | COc1ccc(CN2CCN(C(=O)CCNC(=O)c3ccc(C(C)(C)C)cc3)CC2)cc1 [Compound 112254, 4-(tert-Butyl)-N-(3-(4-(4-methoxybenzyl)piperazin-1-yl)-3-oxopropyl)benzamide] | binds to AdipoR1 and AdipoR2 | binds to AdipoR1 and AdipoR2 | – | – | – | – | – | – | – | – | – | – | – | – |
| ~100 | 100 to 1000 | ~10 | reaches the EC50 value | O=C(COc1ccc(C(=O)c2ccccc2)cc1)NC1CCN(Cc2ccccc2)CC1 [AdipoRon, 2-(4-Benzoylphenoxy)-N-(1-benzylpiperidin-4-yl)acetamide] | – | – | decreases the expression | increases Progesterone plasma concentration | reduces Testosterone plasma concentration | normalizes plasma adiponectin | significantly reduces the increase in Testosterone | dose-dependently reduces the induction | dose-dependently reduces the induction | no effect on plasma insulin | comparable data | dose-dependently reduces the induction of LH | decreases the expression | insulin sensitivity is increased |

Reference: patent US20220249458A1, “Agonists Of Adiponectin” (BAYER AKTIENGESELLSCHAFT, priority 2019, published 2022)
